Source: ChEMBL document CHEMBL5050844 (2019)

Experiments:
[1] = Induction of anti-CD3 antibodies-stimulated human T cell activation at 1 uM assessed fold increase in CD25 expression measured by ELISA assay; assay type: functional, T cell line; also: reference of the scale not given here
[2] = Induction of anti-CD3/CD28 antibodies-stimulated human T cell activation at 0.3 uM assessed fold increase in IL-2 secretion measured by ELISA assay; assay type: functional, T cell line
[3] = Induction of anti-CD3 antibodies-stimulated human T cell activation at 1 uM assessed fold increase in IL-2 secretion measured by ELISA assay; assay type: functional, T cell line; also: reference of the scale not given here
[4] = Induction of anti-CD3/CD28 antibodies-stimulated human T cell activation at 1 uM assessed fold increase in CD25 expression measured by ELISA assay; assay type: functional, T cell line
[5] = biological target: E3 ubiquitin-protein ligase CBL-B (Homo sapiens, UniProt Q13191); assay: Inhibition of N-terminal Avi-tagged human CBL-B (36 to 427 residues) incubated with 60 nM Src kinase for 1.5 hrs followed by incubation with fluorescently labeled UbcH5B-Ub for 1 hr and measured by TR-FRET assay; assay type: single protein
E3 ubiquitin-protein ligase CBL-B, sequence (Q13191 whole entry, the tested form may be a part): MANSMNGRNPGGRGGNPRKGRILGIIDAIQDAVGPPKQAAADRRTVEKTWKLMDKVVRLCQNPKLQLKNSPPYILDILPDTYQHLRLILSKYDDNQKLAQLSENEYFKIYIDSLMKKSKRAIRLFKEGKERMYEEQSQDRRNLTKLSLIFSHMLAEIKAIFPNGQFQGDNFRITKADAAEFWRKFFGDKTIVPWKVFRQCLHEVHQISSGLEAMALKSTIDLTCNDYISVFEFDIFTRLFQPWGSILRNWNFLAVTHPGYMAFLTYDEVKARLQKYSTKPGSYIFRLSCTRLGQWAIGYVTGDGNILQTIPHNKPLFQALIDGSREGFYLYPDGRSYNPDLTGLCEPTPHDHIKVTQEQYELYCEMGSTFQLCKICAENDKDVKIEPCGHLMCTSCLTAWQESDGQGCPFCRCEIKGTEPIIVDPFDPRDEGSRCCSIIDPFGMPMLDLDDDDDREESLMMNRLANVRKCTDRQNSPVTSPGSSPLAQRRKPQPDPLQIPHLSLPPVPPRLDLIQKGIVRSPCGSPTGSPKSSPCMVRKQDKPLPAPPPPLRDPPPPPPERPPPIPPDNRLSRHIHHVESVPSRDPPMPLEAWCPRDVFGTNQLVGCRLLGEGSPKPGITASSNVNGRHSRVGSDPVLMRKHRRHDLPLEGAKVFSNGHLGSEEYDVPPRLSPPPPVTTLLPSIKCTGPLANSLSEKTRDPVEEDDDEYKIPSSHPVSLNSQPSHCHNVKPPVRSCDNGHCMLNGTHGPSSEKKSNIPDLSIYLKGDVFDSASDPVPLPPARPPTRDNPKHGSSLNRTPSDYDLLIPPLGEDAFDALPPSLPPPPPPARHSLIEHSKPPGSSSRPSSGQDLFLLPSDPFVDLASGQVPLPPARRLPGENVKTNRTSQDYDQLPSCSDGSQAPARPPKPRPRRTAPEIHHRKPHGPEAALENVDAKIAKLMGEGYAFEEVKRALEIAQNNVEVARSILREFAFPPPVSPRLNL

[6] = Induction of anti-CD3/CD28 antibodies-stimulated human T cell activation at 1 uM assessed fold increase in IL-2 secretion measured by ELISA assay; assay type: functional, T cell line
[7] = Induction of anti-CD3/CD28 antibodies-stimulated human T cell activation at 0.3 uM assessed fold increase in CD25 expression measured by ELISA assay; assay type: functional, T cell line

Row | Structure (SMILES) | fold change (FC) [1] | fold change (FC) [2] | fold change (FC) [3] | fold change (FC) [4] | IC50 [5] | fold change (FC) [6] | fold change (FC) [7]
1 | Cn1cnnc1CC1(c2cccc(N3Cc4c(cc(N5CCC(C(F)F)C5)cc4C(F)(F)F)C3=O)c2)COC1 (stereo not drawn) | 0.601 | 1.01 | <=0.05 | 1.01 | < 100 nM | 2.51 | 1.01
2 | CC[C@@H](c1cc2c(c(C(F)(F)F)c1)CN(c1cccc(C3(Cc4nncn4C)COC3)c1)C2=O)N1CC[C@H](F)C1 | >=1.001 | >=7.5 | >=0.201 | 1.51 | < 100 nM | >=7.5 | 1.51
3 | Cc1cc2c(c(C3CC3)n1)CN(c1cccc(C3(C(F)(F)c4nncn4C)COC3)c1)C2=O | 0.601 | 1.01 | 0.051 | 1.01 | < 100 nM | 1.01 | 1.01
4 | CN1CCN(c2cc3c(c(C(F)(F)F)c2)CN(c2cccc(C4(Cc5nncn5C)COC4)c2)C3=O)CC12CC2 | >=1.001 | 2.51 | 0.151 | 1.51 | < 100 nM | 5 | 1.31
5 | Cn1cnnc1CC1(c2cccc(N3Cc4c(cc(C5CC5)nc4C4CC4)C3=O)c2)COC1 | 0.801 | 1.01 | 0.101 | 1.01 | < 100 nM | 1.01 | 1.01
6 | Cc1conc1CC1(c2cccc(NC(=O)c3cc(CN4CCC5(CC5)C4)nc(C4CC4)n3)c2)COC1 | >=1.001 | >=7.5 | >=0.201 | 1.31 | < 100 nM | >=7.5 | 1.31
7 | Cn1cnnc1CC1(c2cccc(N3Cc4c(cc(CN5CCC(C#N)CC5)cc4C(F)(F)F)C3=O)c2)COC1 | >=1.001 | 5 | >=0.201 | 1.31 | < 100 nM | >=7.5 | 1.31
8 | Cn1cnnc1CC1(c2cccc(N3Cc4c(cc(CN5CC6CC6(C)C5)cc4C(F)(F)F)C3=O)c2)COC1 (stereo not drawn) | >=1.001 | >=7.5 | >=0.201 | 1.01 | < 100 nM | >=7.5 | 1.01
9 | Cn1cc2c(n1)CCCN2Cc1cc2c(c(C(F)(F)F)c1)CN(c1cccc(C3(Cc4nncn4C)COC3)c1)C2=O | >=1.001 | 5 | >=0.201 | 1.31 | < 100 nM | >=7.5 | 1.01
10 | Cn1cnnc1CC1(c2cccc(NC(=O)c3[nH]nc4c3OCCC4)c2)COC1 | 0.601 | 1.01 | 0.051 | 1.01 | < 100 nM | 1.01 | 1.01
11 | Cn1cnnc1CC1(c2cccc(N3Cc4c(cc(CN5CC(F)C5(C)C)cc4C(F)(F)F)C3=O)c2)COC1 (stereo not drawn) | >=1.001 | 2.51 | 0.101 | 1.31 | < 100 nM | 5 | 1.31
12 | Cn1cnnc1CC1(c2cccc(N3Cc4c(cc(C5=CCOC5)cc4C(F)(F)F)C3=O)c2)COC1 | 0.801 | 2.51 | 0.101 | 1.31 | < 100 nM | 2.51 | 1.01
13 | Cn1cnnc1CC1(c2cccc(N3Cc4c(cc(N5CC(C(F)F)C5)nc4C4CC4)C3=O)c2)COC1 | 0.801 | 2.51 | 0.101 | 1.01 | < 100 nM | 5 | 1.01
14 | Cn1cnnc1CC1(c2cccc(N3Cc4c(cc(CN5CCC6(CC6)C(F)(F)C5)cc4C(F)(F)F)C3=O)c2)COC1 | >=1.001 | 2.51 | >=0.201 | 1.31 | < 100 nM | >=7.5 | 1.31
15 | Cn1cnnc1CC1(c2cccc(N3Cc4c(cc(OC(F)F)cc4C(F)(F)F)C3=O)c2)COC1 | 0.801 | 2.51 | 0.051 | 1.31 | < 100 nM | 5 | 1.01
16 | CC1C(C(F)(F)F)CCN1Cc1cc2c(c(C(F)(F)F)c1)CN(c1cccc(C3(Cc4nncn4C)COC3)c1)C2=O (stereo not drawn) | >=1.001 | 5 | 0.051 | 1.31 | < 100 nM | >=7.5 | 1.01
17 | Cn1cnnc1CC1(c2cccc(N3Cc4c(cc(N5CC6(CCC6(F)F)C5)cc4C(F)(F)F)C3=O)c2)COC1 | 0.601 | 1.01 | <=0.05 | 1.01 | < 100 nM | 2.51 | 1.01
18 | Cn1cnnc1CC1(c2cccc(N3Cc4c(cc(C(N5CCCC5)C(F)(F)F)cc4C(F)(F)F)C3=O)c2)COC1 (stereo not drawn) | 0.801 | 1.01 | 0.051 | 1.31 | < 100 nM | 2.51 | 1.01
19 | Cc1cc(C(=O)Nc2cccc(C3(Cc4nncn4C)COC3)c2)n2ncc(C)c2n1 | 0.801 | 2.51 | 0.051 | 1.01 | < 100 nM | 2.51 | 1.01
20 | C[C@@H]1CN(C)CCN1c1cc2c(c(C(F)(F)F)c1)CN(c1cccc(C3(Cc4nncn4C)COC3)c1)C2=O | >=1.001 | 2.51 | 0.151 | 1.31 | < 100 nM | >=7.5 | 1.01
21 | Cn1cnnc1CC1(c2cccc(N3Cc4c(cc(CN5Cc6ccc(F)cc6C5)cc4C(F)(F)F)C3=O)c2)COC1 | >=1.001 | 5 | >=0.201 | 1.31 | < 100 nM | >=7.5 | 1.31
22 | Cc1cc(C(=O)Nc2cc(C3CC3)cc(C3(Cc4nncn4C)COC3)c2)nc(C2CC2)n1 | >=1.001 | 2.51 | >=0.201 | 1.31 | < 100 nM | >=7.5 | 1.01
23 | CN1C[C@H]2CC[C@@H](C1)N2c1cc(C(=O)Nc2cccc(C3(Cc4nncn4C)COC3)c2)nc(C2CC2)n1 | >=1.001 | 5 | >=0.201 | 1.51 | < 100 nM | >=7.5 | 1.31
24 | Cn1cnnc1CC1(c2cccc(N3Cc4c(cc(CN5CCCC(F)(F)CC5)cc4C(F)(F)F)C3=O)c2)COC1 | >=1.001 | >=7.5 | >=0.201 | 1.01 | < 100 nM | >=7.5 | 1.01
25 | Cn1cnnc1CC1(c2cccc(N3Cc4c(cc(CN5CCOCC5)cc4C(F)(F)F)C3=O)c2)COC1 | >=1.001 | 2.51 | >=0.201 | 1.31 | < 100 nM | >=7.5 | 1.31
26 | Cn1cnnc1CC1(c2cccc(N3Cc4c(cc(CN5CCCCC(F)C5)cc4C(F)(F)F)C3=O)c2)COC1 (stereo not drawn) | >=1.001 | 5 | >=0.201 | 1.31 | < 100 nM | >=7.5 | 1.31
27 | Cn1cnnc1CC1(c2cccc(N3Cc4c(cc(CN5CC[C@H](F)C5)nc4C4CC4)C3=O)c2)COC1 | 0.801 | 2.51 | 0.051 | 1.01 | < 100 nM | 5 | 1.01
28 | C[C@H]1CN(Cc2cc3c(c(C(F)(F)F)c2)CN(c2cccc(C4(Cc5nncn5C)COC4)c2)C3=O)CCO1 | 0.601 | 5 | >=0.201 | 1.31 | < 100 nM | >=7.5 | 1.31
29 | Cn1cnnc1CC1(c2cccc(N3Cc4c(cc(CN5CCC(C(F)F)CC5)cc4C(F)(F)F)C3=O)c2)COC1 | >=1.001 | 5 | 0.151 | 1.31 | < 100 nM | >=7.5 | 1.31
